# Test results published in paper PMC4490784, “Compensatory induction of MYC expression by sustained CDK9 inhibition via a BRD4-dependent mechanism” (eLife, 2015).
# Tests used:
# Assay in all cases: KINOMEscan binding assay
# SNARK = molecular target: T1, SNARK (Homo sapiens, UniProt Q9H093)
# T1 construct: purchased DiscoveRx KINOMEscan
# In short: (§1)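 Competitive displacement at the ATP site served as the measure. Over 400 kinases were included, each exposed to i-CDK9 at 1 and at 10 µM.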
# [1] = molecular target: T2, ABL1(H396P)-phosphorylated (Homo sapiens, UniProt P00519, H396P); conditions: 1 µM i-CDK9; read-out: % Retention on Solid Support
# T2 construct: purchased DiscoveRx KINOMEscan
# In short: as §1
# TAK1 = molecular target: T3, TAK1 (Homo sapiens, UniProt O43318); conditions: read-out: % Retention on Solid Support
# T3 construct: purchased DiscoveRx KINOMEscan
# In short: as §1
# NIM1 = molecular target: T4, NIM1 (Homo sapiens, UniProt Q8IY84); conditions: read-out: % Retention on Solid Support
# T4 construct: purchased DiscoveRx KINOMEscan
# In short: as §1
# MEK1 = molecular target: T5, MEK1 (Homo sapiens, UniProt Q02750); conditions: read-out: % Retention on Solid Support
# T5 construct: purchased DiscoveRx KINOMEscan
# In short: as §1
# FLT3(ITD) = system: FLT3(ITD)
# In short: as §1
# LATS1 = molecular target: T6, LATS1 (Homo sapiens, UniProt O95835); conditions: read-out: % Retention on Solid Support
# T6 construct: purchased DiscoveRx KINOMEscan
# In short: as §1
# MEK4 = molecular target: T7, MEK4 (Homo sapiens, UniProt P45985); conditions: read-out: % Retention on Solid Support
# T7 construct: purchased DiscoveRx KINOMEscan
# In short: as §1
# EPHA1 = molecular target: T8, EPHA1 (Homo sapiens, UniProt P21709); conditions: read-out: % Retention on Solid Support
# T8 construct: purchased DiscoveRx KINOMEscan
# In short: as §1
# CDC2L1 = molecular target: T9, CDC2L1 (Homo sapiens, UniProt P21127); conditions: read-out: % Retention on Solid Support
# T9 construct: purchased DiscoveRx KINOMEscan
# In short: as §1
# [2] = molecular target: T10, RSK2(Kin.Dom.1-N-terminal) (Homo sapiens, UniProt P51812); conditions: read-out: % Retention on Solid Support
# T10 construct: RSK2(Kin.Dom.1-N-terminal); purchased DiscoveRx KINOMEscan
# In short: as §1
# KIT(V559D) = molecular target: T11, KIT(V559D) (Homo sapiens, UniProt P10721, V559D); conditions: read-out: % Retention on Solid Support
# T11 construct: purchased DiscoveRx KINOMEscan
# In short: as §1
# MAST1 = molecular target: T12, MAST1 (Homo sapiens, UniProt Q9Y2H9); conditions: read-out: % Retention on Solid Support
# T12 construct: purchased DiscoveRx KINOMEscan
# In short: as §1
# DCAMKL3 = molecular target: T13, DCAMKL3 (Homo sapiens, UniProt Q9C098); conditions: read-out: % Retention on Solid Support
# T13 construct: purchased DiscoveRx KINOMEscan
# In short: as §1
# PAK7 = molecular target: T14, PAK7 (Homo sapiens, UniProt Q9P286); conditions: read-out: % Retention on Solid Support
# T14 construct: purchased DiscoveRx KINOMEscan
# In short: as §1
# PDPK1 = molecular target: T15, PDPK1 (Homo sapiens, UniProt O15530); conditions: read-out: % Retention on Solid Support
# T15 construct: purchased DiscoveRx KINOMEscan
# T15 sequence (O15530 1-556): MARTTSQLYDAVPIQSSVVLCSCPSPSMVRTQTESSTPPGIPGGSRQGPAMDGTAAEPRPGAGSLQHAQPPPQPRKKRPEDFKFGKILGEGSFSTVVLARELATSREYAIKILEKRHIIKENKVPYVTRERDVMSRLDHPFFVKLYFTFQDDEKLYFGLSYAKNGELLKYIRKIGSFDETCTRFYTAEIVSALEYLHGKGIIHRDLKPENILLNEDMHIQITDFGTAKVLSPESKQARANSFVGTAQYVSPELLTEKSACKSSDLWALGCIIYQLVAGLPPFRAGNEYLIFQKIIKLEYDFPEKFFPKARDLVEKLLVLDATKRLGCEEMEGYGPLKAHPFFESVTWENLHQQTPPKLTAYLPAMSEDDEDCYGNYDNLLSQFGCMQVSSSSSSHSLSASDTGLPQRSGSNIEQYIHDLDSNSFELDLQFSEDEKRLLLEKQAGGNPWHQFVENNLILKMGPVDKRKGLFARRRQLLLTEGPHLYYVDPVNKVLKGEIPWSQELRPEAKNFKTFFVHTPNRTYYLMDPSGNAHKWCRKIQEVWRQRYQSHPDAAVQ
# In short: as §1
# NEK3 = molecular target: T16, NEK3 (Homo sapiens, UniProt P51956); conditions: 1 µM i-CDK9; read-out: % Retention on Solid Support
# T16 construct: purchased DiscoveRx KINOMEscan
# In short: as §1
# ROCK2 = molecular target: T17, ROCK2 (Homo sapiens, UniProt O75116); conditions: read-out: % Retention on Solid Support
# T17 construct: purchased DiscoveRx KINOMEscan
# In short: as §1
# MAP4K4 = molecular target: T18, MAP4K4 (Homo sapiens, UniProt O95819); conditions: read-out: % Retention on Solid Support
# T18 construct: purchased DiscoveRx KINOMEscan
# In short: as §1
# YSK4 = molecular target: T19, YSK4 (Homo sapiens, UniProt Q56UN5); conditions: read-out: % Retention on Solid Support
# T19 construct: purchased DiscoveRx KINOMEscan
# In short: as §1
# ABL1-nonphosphorylated = molecular target: T20, ABL1-nonphosphorylated (Homo sapiens, UniProt P00519); conditions: read-out: % Retention on Solid Support
# T20 construct: purchased DiscoveRx KINOMEscan
# In short: as §1
# CDKL5 = molecular target: T21, CDKL5 (Homo sapiens, UniProt O76039); conditions: read-out: % Retention on Solid Support
# T21 construct: purchased DiscoveRx KINOMEscan
# In short: as §1
# PIP5K2C = molecular target: T22, PIP5K2C (Homo sapiens, UniProt Q8TBX8); conditions: 1 µM i-CDK9; read-out: % Retention on Solid Support
# T22 construct: purchased DiscoveRx KINOMEscan
# In short: as §1
# CAMK1D = molecular target: T23, CAMK1D (Homo sapiens, UniProt Q8IU85); conditions: read-out: % Retention on Solid Support
# T23 construct: purchased DiscoveRx KINOMEscan
# In short: as §1
# T23 sequence (Q8IU85 whole entry): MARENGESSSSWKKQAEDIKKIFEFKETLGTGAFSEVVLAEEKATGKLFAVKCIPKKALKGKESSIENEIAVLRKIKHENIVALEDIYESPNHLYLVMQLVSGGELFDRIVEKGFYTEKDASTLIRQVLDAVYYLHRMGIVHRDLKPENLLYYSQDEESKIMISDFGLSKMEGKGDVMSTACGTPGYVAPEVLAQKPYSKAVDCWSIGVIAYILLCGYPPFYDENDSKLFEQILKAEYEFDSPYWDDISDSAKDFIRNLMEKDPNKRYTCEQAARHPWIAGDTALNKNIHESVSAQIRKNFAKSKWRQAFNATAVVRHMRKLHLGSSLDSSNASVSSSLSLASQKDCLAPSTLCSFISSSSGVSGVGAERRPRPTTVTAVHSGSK
# T5 sequence (Q02750 whole entry): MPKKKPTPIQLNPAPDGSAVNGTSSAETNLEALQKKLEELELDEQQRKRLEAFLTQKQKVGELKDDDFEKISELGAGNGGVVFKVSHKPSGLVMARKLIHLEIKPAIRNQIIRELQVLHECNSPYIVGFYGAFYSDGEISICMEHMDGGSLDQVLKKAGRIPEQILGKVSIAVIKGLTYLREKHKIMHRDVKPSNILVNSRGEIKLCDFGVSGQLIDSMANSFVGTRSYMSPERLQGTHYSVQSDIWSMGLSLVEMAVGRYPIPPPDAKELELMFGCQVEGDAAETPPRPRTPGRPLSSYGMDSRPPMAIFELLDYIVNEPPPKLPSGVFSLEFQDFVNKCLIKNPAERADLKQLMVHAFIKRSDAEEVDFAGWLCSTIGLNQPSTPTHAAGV
# T21 sequence (O76039 whole entry): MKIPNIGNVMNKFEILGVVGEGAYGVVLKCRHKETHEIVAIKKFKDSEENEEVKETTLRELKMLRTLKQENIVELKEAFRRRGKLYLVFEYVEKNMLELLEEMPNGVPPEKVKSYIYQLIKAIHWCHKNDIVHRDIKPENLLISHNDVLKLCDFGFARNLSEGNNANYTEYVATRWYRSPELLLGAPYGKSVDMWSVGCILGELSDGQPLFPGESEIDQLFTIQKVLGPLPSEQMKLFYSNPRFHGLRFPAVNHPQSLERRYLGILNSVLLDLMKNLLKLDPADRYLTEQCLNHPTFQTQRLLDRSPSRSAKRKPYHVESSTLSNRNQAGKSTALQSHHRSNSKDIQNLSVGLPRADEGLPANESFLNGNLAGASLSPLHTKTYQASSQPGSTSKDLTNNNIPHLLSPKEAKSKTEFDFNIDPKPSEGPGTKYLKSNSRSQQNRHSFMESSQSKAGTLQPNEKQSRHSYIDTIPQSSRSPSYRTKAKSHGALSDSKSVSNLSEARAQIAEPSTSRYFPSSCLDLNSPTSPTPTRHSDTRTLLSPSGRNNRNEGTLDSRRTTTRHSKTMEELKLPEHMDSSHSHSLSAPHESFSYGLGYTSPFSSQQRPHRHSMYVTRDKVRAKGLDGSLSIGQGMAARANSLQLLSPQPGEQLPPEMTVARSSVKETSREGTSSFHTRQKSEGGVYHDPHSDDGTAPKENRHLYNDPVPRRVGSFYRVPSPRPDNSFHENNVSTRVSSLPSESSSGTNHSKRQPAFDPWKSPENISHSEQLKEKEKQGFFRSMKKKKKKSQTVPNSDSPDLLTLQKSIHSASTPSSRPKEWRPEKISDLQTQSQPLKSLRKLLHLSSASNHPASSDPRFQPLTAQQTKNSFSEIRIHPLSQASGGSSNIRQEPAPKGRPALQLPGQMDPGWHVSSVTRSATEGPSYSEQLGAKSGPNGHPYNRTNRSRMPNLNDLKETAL
# T12 sequence (Q9Y2H9 whole entry): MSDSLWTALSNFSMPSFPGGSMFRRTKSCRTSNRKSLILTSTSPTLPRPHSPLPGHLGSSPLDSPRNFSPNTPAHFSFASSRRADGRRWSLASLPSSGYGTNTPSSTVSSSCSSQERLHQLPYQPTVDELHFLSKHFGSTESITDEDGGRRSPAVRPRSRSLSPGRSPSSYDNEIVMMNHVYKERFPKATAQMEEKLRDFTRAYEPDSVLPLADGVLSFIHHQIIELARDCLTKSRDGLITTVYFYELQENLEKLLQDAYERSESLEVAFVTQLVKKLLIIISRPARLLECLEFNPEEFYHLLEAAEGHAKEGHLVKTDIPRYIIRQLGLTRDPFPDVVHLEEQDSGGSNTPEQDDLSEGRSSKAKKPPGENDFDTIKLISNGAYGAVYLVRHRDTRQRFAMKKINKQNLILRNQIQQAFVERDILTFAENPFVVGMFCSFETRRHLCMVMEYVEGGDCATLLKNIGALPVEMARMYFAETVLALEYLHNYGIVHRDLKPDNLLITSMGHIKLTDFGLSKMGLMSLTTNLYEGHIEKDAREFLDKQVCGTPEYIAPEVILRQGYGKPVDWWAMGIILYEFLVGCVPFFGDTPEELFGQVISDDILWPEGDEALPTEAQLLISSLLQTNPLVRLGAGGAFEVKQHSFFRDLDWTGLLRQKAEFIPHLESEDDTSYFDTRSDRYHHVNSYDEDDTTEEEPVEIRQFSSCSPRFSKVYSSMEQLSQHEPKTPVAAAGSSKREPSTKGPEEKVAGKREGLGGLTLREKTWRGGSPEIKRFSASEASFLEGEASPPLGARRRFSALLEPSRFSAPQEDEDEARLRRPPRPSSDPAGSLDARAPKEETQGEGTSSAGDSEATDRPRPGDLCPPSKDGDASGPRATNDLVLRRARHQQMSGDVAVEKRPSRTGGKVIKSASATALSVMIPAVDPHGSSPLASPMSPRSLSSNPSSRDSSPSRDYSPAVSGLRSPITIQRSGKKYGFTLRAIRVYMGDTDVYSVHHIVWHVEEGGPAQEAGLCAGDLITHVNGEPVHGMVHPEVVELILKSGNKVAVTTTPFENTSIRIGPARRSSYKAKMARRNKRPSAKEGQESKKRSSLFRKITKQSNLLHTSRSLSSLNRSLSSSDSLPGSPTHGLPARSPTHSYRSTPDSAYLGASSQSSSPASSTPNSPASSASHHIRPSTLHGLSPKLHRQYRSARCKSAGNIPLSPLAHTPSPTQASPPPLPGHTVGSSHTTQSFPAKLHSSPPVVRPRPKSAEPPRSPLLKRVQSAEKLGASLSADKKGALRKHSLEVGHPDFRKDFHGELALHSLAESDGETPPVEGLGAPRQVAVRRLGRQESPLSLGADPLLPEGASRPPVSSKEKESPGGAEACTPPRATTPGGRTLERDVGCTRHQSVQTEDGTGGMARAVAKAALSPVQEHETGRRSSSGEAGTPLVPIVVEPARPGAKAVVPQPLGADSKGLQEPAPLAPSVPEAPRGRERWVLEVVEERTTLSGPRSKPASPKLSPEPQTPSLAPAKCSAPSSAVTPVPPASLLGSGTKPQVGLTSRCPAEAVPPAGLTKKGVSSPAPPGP
# T6 sequence (O95835 whole entry): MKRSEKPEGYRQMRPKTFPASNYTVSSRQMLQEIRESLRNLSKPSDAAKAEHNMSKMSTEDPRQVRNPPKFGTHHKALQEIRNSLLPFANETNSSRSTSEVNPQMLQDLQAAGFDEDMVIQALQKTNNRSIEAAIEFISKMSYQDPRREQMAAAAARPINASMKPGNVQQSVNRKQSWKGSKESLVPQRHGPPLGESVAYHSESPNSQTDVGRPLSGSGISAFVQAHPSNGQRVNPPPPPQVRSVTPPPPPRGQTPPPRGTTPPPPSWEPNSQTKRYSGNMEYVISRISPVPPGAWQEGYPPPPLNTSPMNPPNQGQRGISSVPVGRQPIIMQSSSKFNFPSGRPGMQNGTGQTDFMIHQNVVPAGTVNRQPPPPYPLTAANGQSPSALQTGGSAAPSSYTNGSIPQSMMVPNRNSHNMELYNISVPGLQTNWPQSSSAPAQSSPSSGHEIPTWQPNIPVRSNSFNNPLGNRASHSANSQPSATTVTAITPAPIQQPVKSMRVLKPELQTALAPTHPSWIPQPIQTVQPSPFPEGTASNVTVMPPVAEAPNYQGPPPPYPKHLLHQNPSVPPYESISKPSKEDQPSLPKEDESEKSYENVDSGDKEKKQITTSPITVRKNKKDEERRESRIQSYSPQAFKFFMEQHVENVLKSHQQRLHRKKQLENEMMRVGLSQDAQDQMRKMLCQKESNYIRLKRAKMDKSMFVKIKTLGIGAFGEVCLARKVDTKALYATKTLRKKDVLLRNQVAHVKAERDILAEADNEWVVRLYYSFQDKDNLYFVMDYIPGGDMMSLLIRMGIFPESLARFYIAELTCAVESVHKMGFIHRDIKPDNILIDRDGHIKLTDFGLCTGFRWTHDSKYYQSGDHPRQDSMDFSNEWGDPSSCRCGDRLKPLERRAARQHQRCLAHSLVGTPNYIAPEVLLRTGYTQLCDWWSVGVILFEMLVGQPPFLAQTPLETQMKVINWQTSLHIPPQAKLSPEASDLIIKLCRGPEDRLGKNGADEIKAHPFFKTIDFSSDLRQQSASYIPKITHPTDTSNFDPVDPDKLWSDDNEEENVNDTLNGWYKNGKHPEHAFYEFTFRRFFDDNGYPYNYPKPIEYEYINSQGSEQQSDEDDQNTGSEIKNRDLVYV
# T4 sequence (Q8IY84 whole entry): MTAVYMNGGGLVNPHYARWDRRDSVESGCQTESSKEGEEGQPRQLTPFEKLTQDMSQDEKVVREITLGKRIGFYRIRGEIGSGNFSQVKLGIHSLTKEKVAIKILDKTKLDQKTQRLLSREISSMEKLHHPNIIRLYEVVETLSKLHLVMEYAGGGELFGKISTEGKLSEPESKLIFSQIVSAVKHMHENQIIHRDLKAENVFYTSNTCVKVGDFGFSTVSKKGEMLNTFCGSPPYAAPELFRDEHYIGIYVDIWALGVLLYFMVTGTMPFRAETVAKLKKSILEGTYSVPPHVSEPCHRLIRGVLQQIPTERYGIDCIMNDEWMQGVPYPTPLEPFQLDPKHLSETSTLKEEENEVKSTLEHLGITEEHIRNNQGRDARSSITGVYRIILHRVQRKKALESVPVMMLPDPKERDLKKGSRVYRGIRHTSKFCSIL
structure (smiles),measurement,setting,value
"N[C@H]1CC[C@H](Nc2cc(-c3cccc(NCc4cccc(F)c4)n3)c(Cl)cn2)CC1 [i-CDK9, N2′-(trans-4-aminocyclohexyl)-5′-chloro-N6-(3-fluorobenzyl)-2,4′-bipyridine-2′,6-diamine]",% Retention on Solid Support,SNARK; 1 µM i-CDK9,100%
same,% Retention on Solid Support,SNARK; 10 µM i-CDK9,87%
same,remaining binding at 1 µM,[1],92%
same,remaining binding at 1 µM,TAK1; 1 µM i-CDK9,100%
same,remaining binding at 10 µM,TAK1; 10 µM i-CDK9,82%
same,remaining binding at 1 µM,NIM1; 1 µM i-CDK9,100%
same,remaining binding at 10 µM,NIM1; 10 µM i-CDK9,100%
same,remaining binding at 1 µM,MEK1; 1 µM i-CDK9,100%
same,remaining binding at 10 µM,MEK1; 10 µM i-CDK9,100%
same,% Retention on Solid Support,FLT3(ITD); 1 µM i-CDK9,100%
same,% Retention on Solid Support,FLT3(ITD); 10 µM i-CDK9,72%
same,remaining binding at 1 µM,LATS1; 1 µM i-CDK9,100%
same,remaining binding at 10 µM,LATS1; 10 µM i-CDK9,100%
same,remaining binding at 1 µM,MEK4; 1 µM i-CDK9,39%
same,remaining binding at 10 µM,MEK4; 10 µM i-CDK9,97%
same,remaining binding at 1 µM,EPHA1; 1 µM i-CDK9,99%
same,remaining binding at 10 µM,EPHA1; 10 µM i-CDK9,100%
same,remaining binding at 1 µM,CDC2L1; 1 µM i-CDK9,92%
same,remaining binding at 10 µM,CDC2L1; 10 µM i-CDK9,36%
same,remaining binding at 1 µM,[2]; 1 µM i-CDK9,86%
same,remaining binding at 10 µM,[2]; 10 µM i-CDK9,76%
same,remaining binding at 1 µM,KIT(V559D); 1 µM i-CDK9,88%
same,remaining binding at 10 µM,KIT(V559D); 10 µM i-CDK9,90%
same,remaining binding at 1 µM,MAST1; 1 µM i-CDK9,100%
same,remaining binding at 10 µM,MAST1; 10 µM i-CDK9,82%
same,remaining binding at 1 µM,DCAMKL3; 1 µM i-CDK9,100%
same,remaining binding at 10 µM,DCAMKL3; 10 µM i-CDK9,63%
same,remaining binding at 1 µM,PAK7; 1 µM i-CDK9,75%
same,remaining binding at 10 µM,PAK7; 10 µM i-CDK9,81%
same,remaining binding at 1 µM,PDPK1; 1 µM i-CDK9,100%
same,remaining binding at 10 µM,PDPK1; 10 µM i-CDK9,90%
same,remaining binding at 1 µM,NEK3,100%
same,remaining binding at 1 µM,ROCK2; 1 µM i-CDK9,100%
same,remaining binding at 10 µM,ROCK2; 10 µM i-CDK9,90%
same,remaining binding at 1 µM,MAP4K4; 1 µM i-CDK9,65%
same,remaining binding at 10 µM,MAP4K4; 10 µM i-CDK9,19%
same,remaining binding at 1 µM,YSK4; 1 µM i-CDK9,100%
same,remaining binding at 10 µM,YSK4; 10 µM i-CDK9,68%
same,remaining binding at 1 µM,ABL1-nonphosphorylated; 1 µM i-CDK9,81%
same,remaining binding at 10 µM,ABL1-nonphosphorylated; 10 µM i-CDK9,100%
same,remaining binding at 1 µM,CDKL5; 1 µM i-CDK9,52%
same,remaining binding at 10 µM,CDKL5; 10 µM i-CDK9,3.8%
same,remaining binding at 1 µM,PIP5K2C,100%
same,remaining binding at 1 µM,CAMK1D; 1 µM i-CDK9,100%
same,remaining binding at 10 µM,CAMK1D; 10 µM i-CDK9,100%
